Laboratory results reported in patent US20210317134A1, “UBIQUITIN-SPECIFIC-PROCESSING PROTEASE 7 (USP7) MODULATORS AND USES THEREOF” (RAPT THERAPEUTICS, INC., priority 2019, published 2021).

Molecular target: USP7 (Homo sapiens, UniProt Q93009)
Assay: USP7 inhibitory potency (Table 1)
Assay type: biochemical

USP7, sequence (Q93009 whole entry): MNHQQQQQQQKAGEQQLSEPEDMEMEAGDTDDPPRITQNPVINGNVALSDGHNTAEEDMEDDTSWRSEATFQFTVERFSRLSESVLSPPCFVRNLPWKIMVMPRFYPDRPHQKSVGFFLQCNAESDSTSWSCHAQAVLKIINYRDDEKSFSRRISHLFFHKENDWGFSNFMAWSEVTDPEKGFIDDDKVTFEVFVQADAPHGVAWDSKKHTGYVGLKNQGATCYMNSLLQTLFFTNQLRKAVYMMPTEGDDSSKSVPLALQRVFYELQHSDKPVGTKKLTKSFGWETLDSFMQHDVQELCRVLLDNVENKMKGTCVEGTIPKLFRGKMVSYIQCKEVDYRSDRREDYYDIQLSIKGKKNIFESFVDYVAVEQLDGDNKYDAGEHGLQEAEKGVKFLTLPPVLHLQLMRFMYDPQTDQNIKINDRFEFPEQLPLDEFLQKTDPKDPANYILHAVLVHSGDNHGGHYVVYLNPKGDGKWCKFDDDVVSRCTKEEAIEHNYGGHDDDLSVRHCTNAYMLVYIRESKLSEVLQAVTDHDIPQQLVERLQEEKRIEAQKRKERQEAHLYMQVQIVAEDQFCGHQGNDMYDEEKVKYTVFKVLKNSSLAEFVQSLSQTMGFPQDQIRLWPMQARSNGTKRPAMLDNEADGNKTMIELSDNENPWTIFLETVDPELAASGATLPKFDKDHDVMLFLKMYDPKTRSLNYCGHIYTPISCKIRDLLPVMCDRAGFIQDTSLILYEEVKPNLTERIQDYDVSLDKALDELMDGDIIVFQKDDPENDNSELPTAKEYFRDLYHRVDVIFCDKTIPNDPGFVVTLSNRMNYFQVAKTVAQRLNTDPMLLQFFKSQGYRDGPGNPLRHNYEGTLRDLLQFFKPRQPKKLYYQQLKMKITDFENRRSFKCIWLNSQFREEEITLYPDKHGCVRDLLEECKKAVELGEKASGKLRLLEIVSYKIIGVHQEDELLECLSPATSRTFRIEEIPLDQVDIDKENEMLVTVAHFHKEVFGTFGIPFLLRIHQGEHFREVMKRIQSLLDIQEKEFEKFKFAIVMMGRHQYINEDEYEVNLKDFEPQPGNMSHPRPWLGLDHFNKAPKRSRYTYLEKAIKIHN

| SMILES | IC50 [µM] |
| --- | --- |
| O=C(C1Cc2cc(Cl)cc(-c3ccnc4[nH]ccc34)c2O1)N1CCN(c2ccccn2)CC1 (centres unmarked) [(5-Chloro-7-(1H-pyrrolo[2,3-b]pyridin-4-yl)-2,3-dihydrobenzofuran-2-yl)(4-(pyridin-2-yl)piperazin-1-yl)methanone] | 10 to 30 |
| Clc1cc2c(c(-c3ccnc4[nH]ccc34)c1)OC(c1n[nH]c3c1CNCC3)C2 (centres unmarked) [3-(5-chloro-7-(1H-pyrrolo[2,3-b]pyridin-4-yl)-2,3-dihydrobenzofuran-2-yl)-4,5,6,7-tetrahydro-1H-pyrazolo[4,3-c]pyridine] | 1 to 10 |
| Cc1cc2c(-c3cc(Cl)cc4c3O[C@@H](c3onc5c3CNCC5)C4)ccnc2cc1C#N [(R)-4-(5-chloro-2-(4,5,6,7-tetrahydroisoxazolo[4,3-c]pyridin-3-yl)-2,3-dihydrobenzofuran-7-yl)-6-methylquinoline-7-carbonitrile] | 1 to 10 |
| O=C(C1Cc2cc(Cl)cc(-c3ccnc4[nH]ccc34)c2O1)N1CCC(O)(Cc2cccnc2)CC1 (centres unmarked) [(5-chloro-7-(1H-pyrrolo[2,3-b]pyridin-4-yl)-2,3-dihydrobenzofuran-2-yl)(4-hydroxy-4-(pyridin-3-ylmethyl)piperidin-1-yl)methanone] | 10 to 30 |
| O=C(C1Cc2cc(Cl)cc(-c3ccnc4[nH]ccc34)c2O1)N1CCC(c2cnc[nH]2)CC1 (centres unmarked) [(4-(1H-imidazol-5-yl)piperidin-1-yl)(5-chloro-7-(1H-pyrrolo[2,3-b]pyridin-4-yl)-2,3-dihydrobenzofuran-2-yl)methanone] | 1 to 10 |
| O=C(C1Cc2cc(Cl)cc(-c3ccnc4[nH]ccc34)c2O1)N1CCN([C@H]2CC[C@H](c3ccccc3)CC2)CC1 (some centres unmarked) [(5-chloro-7-(1H-pyrrolo[2,3-b]pyridin-4-yl)-2,3-dihydrobenzofuran-2-yl)(4-((1s,4r)-4-phenylcyclohexyl)piperazin-1-yl)methanone] | 1 to 10 |
| O=C(C1Cc2cc(Cl)cc(-c3ccnc4cccnc34)c2O1)N1CCNCC1 (centres unmarked) [(5-chloro-7-(1,5-naphthyridin-4-yl)-2,3-dihydrobenzofuran-2-yl)(piperazin-1-yl)methanone] | 10 to 30 |

More lines, now with the values ahead:

| IC50 [µM] | SMILES |
| --- | --- |
| < 1 | O=C([C@H]1Cc2cc(Cl)cc(-c3ccnc4cc(CO)oc34)c2O1)N1CCNCC1 [(R)-(5-chloro-7-(2-(hydroxymethyl)furo[3,2-b]pyridin-7-yl)-2,3-dihydrobenzofuran-2-yl)(piperazin-1-yl)methanone] |
| 1 to 10 | Clc1cc2c(c(-c3ccnc4ccnn34)c1)OC(c1onc3c1CNCC3)C2 (centres unmarked) [3-(5-chloro-7-(pyrazolo[1,5-a]pyrimidin-7-yl)-2,3-dihydrobenzofuran-2-yl)-4,5,6,7-tetrahydroisoxazolo[4,3-c]pyridine] |
| < 1 | CN(C)C1CCN(C(=O)[C@H]2Cc3cc(Cl)cc(-c4ccnc5cc(CO)sc45)c3O2)CC1 [(R)-(5-chloro-7-(2-(hydroxymethyl)thieno[3,2-b]pyridin-7-yl)-2,3-dihydrobenzofuran-2-yl)(4-(dimethylamino)piperidin-1-yl)methanone] |
| < 1 | O=C([C@H]1Cc2cc(Cl)cc(-c3ccnc4cc(N5C(=O)CCC5=O)ccc34)c2O1)N1CCNCC1 [(R)-1-(4-(5-chloro-2-(piperazine-1-carbonyl)-2,3-dihydrobenzofuran-7-yl)quinolin-7-yl)pyrrolidine-2,5-dione] |
| < 1 | CNC1CCN(C(=O)[C@H]2Cc3cc(Cl)cc(-c4ccnc5ccsc45)c3O2)CC1 [(R)-(5-chloro-7-(thieno[3,2-b]pyridin-7-yl)-2,3-dihydrobenzofuran-2-yl)(4-(methylamino)piperidin-1-yl)methanone] |
| < 1 | CC(=O)NC(C)Cc1cc2nccc(-c3cc(Cl)cc4c3O[C@@H](C(=O)N3CCNCC3)C4)c2s1 (stereo partly drawn) [N-(1-(7-((R)-5-chloro-2-(piperazine-1-carbonyl)-2,3-dihydrobenzofuran-7-yl)thieno[3,2-b]pyridin-2-yl)propan-2-yl)acetamide] |
| < 1 | CCC(OC)c1cc2nccc(-c3cc(Cl)cc4c3O[C@@H](c3onc5c3CNCC5)C4)c2s1 (stereo partly drawn) [3-((2R)-5-chloro-7-(2-(1-methoxypropyl)thieno[3,2-b]pyridin-7-yl)-2,3-dihydrobenzofuran-2-yl)-4,5,6,7-tetrahydroisoxazolo[4,3-c]pyridine] |
